From ChEMBL document CHEMBL1255455, “Biochemical study of a new inhibitor-resistant beta-lactamase, SHV-84, produced by a clinical Escherichia coli strain” (2010)
≈ marks a conversion by molar mass, not a printed value.

B1: Beta-lactamase SHV-1 (Escherichia coli), P0AD63 (protein)
chain: MRYIRLCIISLLATLPLAVHASPQPLEQIKLSESQLSGRVGMIEMDLASGRTLTAWRADERFPMMSTFKVVLCGAVLARVDAGDEQLERKIHYRQQDLVDYSPVSEKHLADGMTVGELCAAAITMSDNSAANLLLATVGGPAGLTAFLRQIGDNVTRLDRWETELNEALPGDARDTTTPASMAATLRKLLTSQRLSARSQRQLLQWMVDDRVAGPLIRSVLPAGWFIADKTGAGERGARGIVALLGPNNKAERIVVIYLRDTPASMAERNQQIAGIGAALIEHWQR

Key:
Escherichia coli [1] = assay: Antimicrobial activity against Escherichia coli DH5alpha; type: functional
Escherichia coli [2] = assay: Ratio of Kcat to Km in Escherichia coli beta-lactamase SHV-84
Escherichia coli [3] = assay: Activity at Escherichia coli beta-lactamase SHV-84
Escherichia coli [4] = assay: Antimicrobial activity against Escherichia coli INSRA4590 expressing SHV-84; type: functional
Escherichia coli [5] = assay: Antimicrobial activity against Escherichia coli DH5alpha expressing SHV-1; type: functional
Escherichia coli [6] = assay: Antimicrobial activity against Escherichia coli DH5alpha expressing SHV-84; type: functional
Escherichia coli [7] = assay: Antimicrobial activity against Escherichia coli DH5alpha expressing SHV-1 in presence of 2 ug/ml clavulanic acid beta-lactamase inhibitor; type: functional
Escherichia coli [8] = assay: Antimicrobial activity against Escherichia coli DH5alpha expressing SHV-84 in presence of 2 ug/ml clavulanic acid beta-lactamase inhibitor; type: functional
Escherichia coli [9] = assay: Antimicrobial activity against Escherichia coli DH5alpha in presence of 2 ug/ml clavulanic acid beta-lactamase inhibitor; type: functional
Escherichia coli [10] = assay: Antimicrobial activity against Escherichia coli INSRA4590 expressing SHV-84 in presence of 2 ug/ml clavulanic acid beta-lactamase inhibitor; type: functional
Escherichia coli [11] = assay: Antimicrobial activity against Escherichia coli DH5alpha in presence of 4 ug/ml Tazobactam beta-lactamase inhibitor; type: functional
Escherichia coli [12] = assay: Antimicrobial activity against Escherichia coli DH5alpha expressing SHV-1 in presence of 4 ug/ml Tazobactam beta-lactamase inhibitor; type: functional
Escherichia coli [13] = assay: Antimicrobial activity against Escherichia coli DH5alpha expressing SHV-84 in presence of 4 ug/ml Tazobactam beta-lactamase inhibitor; type: functional
Escherichia coli [14] = assay: Antimicrobial activity against Escherichia coli INSRA4590 expressing SHV-84 in presence of 4 ug/ml Tazobactam beta-lactamase inhibitor; type: functional
[15] = substrate: CCN1CCN(C(=O)N[C@@H](C(=O)N[C@@H]2C(=O)N3[C@@H]2SC(C)(C)[C@@H]3C(=O)O)c2ccccc2)C(=O)C1=O; assay: (§1) Ratio of Kcat to Km in Escherichia coli beta-lactamase SHV-1
[16] = substrate: CC1(C)S[C@@H]2[C@H](NC(=O)[C@H](C(=O)O)c3ccsc3)C(=O)N2[C@H]1C(=O)O; assay: as §1
[17] = substrate: CC1(C)S[C@@H]2[C@H](NC(=O)[C@H](N)c3ccc(O)cc3)C(=O)N2[C@H]1C(=O)O; assay: as §1
[18] = substrate: CC1(C)S[C@@H]2[C@H](NC(=O)Cc3ccccc3)C(=O)N2[C@H]1C(=O)O; assay: as §1
[19] = substrate: CCN1CCN(C(=O)N[C@@H](C(=O)N[C@@H]2C(=O)N3[C@@H]2SC(C)(C)[C@@H]3C(=O)O)c2ccccc2)C(=O)C1=O; assay: (§2) Activity at Escherichia coli beta-lactamase SHV-1
[20] = substrate: CC1(C)S[C@@H]2[C@H](NC(=O)[C@H](C(=O)O)c3ccsc3)C(=O)N2[C@H]1C(=O)O; assay: as §2
[21] = substrate: CC1(C)S[C@@H]2[C@H](NC(=O)[C@H](N)c3ccc(O)cc3)C(=O)N2[C@H]1C(=O)O; assay: as §2
[22] = substrate: CC(=O)OCC1=C(C(=O)O)N2C(=O)[C@@H](NC(=O)Cc3cccs3)[C@H]2SC1; assay: as §2
[23] = substrate: CC(C)(O/N=C(\C(=O)N[C@@H]1C(=O)N2C(C(=O)[O-])=C(C[n+]3ccccc3)CS[C@H]12)c1csc(N)n1)C(=O)O; assay: as §2
[24] = substrate: CO/N=C(\C(=O)N[C@@H]1C(=O)N2C(C(=O)O)=C(COC(C)=O)CS[C@H]12)c1csc(N)n1; assay: as §2
[25] = substrate: CC1(C)S[C@@H]2[C@H](NC(=O)Cc3ccccc3)C(=O)N2[C@H]1C(=O)O; assay: as §2

Molecule	MIC (Escherichia coli [1]) [µg/mL]	kcat/Km (Escherichia coli [2]) [µM⁻¹ s⁻¹]	Km (Escherichia coli [3]) [µM]	kcat (Escherichia coli [3]) [s⁻¹]	MIC (Escherichia coli [4]) [µg/mL]	MIC (Escherichia coli [5]) [µg/mL]	MIC (Escherichia coli [6]) [µg/mL]	other results
CC1(C)S[C@@H]2[C@H](NC(=O)[C@H](C(=O)O)c3ccsc3)C(=O)N2[C@H]1C(=O)O [TICARCILLIN]	≤ 2	2.5	83	216	> 4100	1020 (≈ 2660 µM)	> 4100	–
C[C@H]1[C@H](NC(=O)/C(=N\OC(C)(C)C(=O)O)c2csc(N)n2)C(=O)N1S(=O)(=O)O [AZTREONAM]	–	–	–	–	0.03 (≈ 0.0689 µM)	–	0.03 (≈ 0.0689 µM)	–
CO/N=C(\C(=O)N[C@@H]1C(=O)N2C(C(=O)O)=C(COC(C)=O)CS[C@H]12)c1csc(N)n1 [CEFOTAXIME]	≤ 0.015	–	–	< 0.1	0.125 (≈ 0.274 µM)	0.06 (≈ 0.132 µM)	0.06 (≈ 0.132 µM)	–
CC(=O)OCC1=C(C(=O)O)N2C(=O)[C@@H](NC(=O)Cc3cccs3)[C@H]2SC1 [CEPHALOTHIN]	1 (≈ 2.52 µM)	0.02	169	4	8 (≈ 20.2 µM)	16 (≈ 40.4 µM)	8 (≈ 20.2 µM)	–
CC1(C)S[C@@H]2[C@H](NC(=O)[C@H](N)c3ccc(O)cc3)C(=O)N2[C@H]1C(=O)O [AMOXICILLIN]	≤ 2	10.4	101	1040	512 (≈ 1400 µM)	2050 (≈ 5600 µM)	2050 (≈ 5600 µM)	MIC (Escherichia coli [7]): 8 µg/mL; MIC (Escherichia coli [8]): > 64 µg/mL; MIC (Escherichia coli [9]): ≤ 2 µg/mL; MIC (Escherichia coli [10]): 64 µg/mL
CC1(C)S[C@@H]2[C@H](NC(=O)Cc3ccccc3)C(=O)N2[C@H]1C(=O)O	–	9.5	64	611	–	–	–	–
CCN1CCN(C(=O)N[C@@H](C(=O)N[C@@H]2C(=O)N3[C@@H]2SC(C)(C)[C@@H]3C(=O)O)c2ccccc2)C(=O)C1=O [PIPERACILLIN]	1 (≈ 1.93 µM)	6	68	406	64 (≈ 124 µM)	64 (≈ 124 µM)	128 (≈ 247 µM)	MIC (Escherichia coli [11]): 1 µg/mL; MIC (Escherichia coli [12]): 2 µg/mL; MIC (Escherichia coli [13]): 2 µg/mL; MIC (Escherichia coli [14]): 4 µg/mL
CC(C)(O/N=C(\C(=O)N[C@@H]1C(=O)N2C(C(=O)[O-])=C(C[n+]3ccccc3)CS[C@H]12)c1csc(N)n1)C(=O)O [CEFTAZIDIME]	0.06 (≈ 0.11 µM)	–	–	< 0.1	0.25 (≈ 0.457 µM)	0.5 (≈ 0.915 µM)	0.25 (≈ 0.457 µM)	–
B1	–	–	–	–	–	–	–	kcat/Km [15]: 62.1 µM⁻¹ s⁻¹; kcat/Km [16]: 20 µM⁻¹ s⁻¹; kcat/Km [17]: 33.7 µM⁻¹ s⁻¹; kcat/Km [18]: 84.2 µM⁻¹ s⁻¹; Km [19]: 24 µM; kcat [19]: 1490 s⁻¹; Km [20]: 11 µM; kcat [20]: 220 s⁻¹; Km [21]: 31 µM; Km [22]: 40 µM; kcat [22]: 128 s⁻¹; kcat [23]: < 0.1 s⁻¹; kcat [24]: < 0.1 s⁻¹; Km [25]: 23 µM; kcat [25]: 1940 s⁻¹
